Reference: publication PMC10066365, “Nemacol is a small molecule inhibitor of C. elegans vesicular acetylcholine transporter with anthelmintic potential” (Nature Communications, 2023)
Several values for one entry are separate records, joined by “and”; a condition that tells them apart may be missing. Equal values may be shown once. Read-outs that look alike come from different tables or passages of the source.

How the values were obtained:
[1] = tested on: C. elegans unc-17 mutants; conditions: unc-17 (md414), 60 min
Description: Significance was calculated using Fisher’s method (one-sided comparisons; see 'Methods'). […] Worms were incubated on the plates for 60 min.
Locomotor phenotype analyses were done in 24-well plates with 1 mL of MYOB substrate (27.5 g Trizma HCl, 12 g Trizma Base, 230 g bacto tryptone, 10 g NaCl, 0.4 g cholesterol (95%)) seeded with 25 µL of OP50 Escherichia coli on each well. Each compound was added to the MYOB substrate before pouring to achieve the desired final concentrations of 30 µM or 60 µM after diffusion through the media. Synchronized young adult worms are transferred into each well using a platinum wire pick. A Leica MZ75 stereomicroscope was used to visualize the movement of worms on the solid substrate. The specific dominant locomotor phenotype (i.e. ‘Punc’, ‘paralyzed’, ‘coiler’ or ‘wild-type locomotion’) was scored after the touch on the head with a platinum wire over a ~3–5 s of observation. […] Coiled animals were not scored as paralyzed despite sometimes not responding to light touch.

Pristionchus pacificus = Pristionchus pacificus motor disruption dose-response on solid media, 1 h; conditions: for mean % any phene (coiled, jerky-Unc or paralyzed): Pristionchus pacificus young adults, mean of three biological replicates; for rep 1 atypical locomotion / rep 1 coiled / rep 1 no phene / rep 1 paralyzed: count of 20 animals per trial, one hour
C. elegans = assay: Suppression of trichlorfon (AChE inhibitor) paralysis, double dose-response, scored after 80 min; format: in vivo, Caenorhabditis elegans; conditions: wild-type, bio rep 1-3
[2] = tested on: Dirofilaria immitis microfilariae; assay: Dirofilaria immitis microfilariae immobility assay (DiroImager, 72 h)
Method in brief: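 Motility read after 72 h drug exposure with an image-based high-throughput plate imager, 1% DMSO medium serving as negative control. Missouri-isolate microfilariae, roughly 250 per well, freshly purified and cultured in supplemented RPMI 1640.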

[3] = tested on: Dirofilaria immitis L3/L4; assay: Dirofilaria immitis L3/L4 motility assay (DiroImager, 72 h)
[4] = 30 µM, average of 3 biological repeats
[5] = 60 µM, average of 3 biological repeats

`O=[N+]([O-])c1ccc(N2CCN(CC3CCCCC3)CC2)cc1` [Nemacol-1] was tested, and the “Fraction No Phenotype” value [1, 4] was 0.037, the “Fraction Parayzed” value [1, 4] was 0.06 and the “Fraction Coiled” value [1, 5] was 0.59. The “Fraction Jerky-Unc” value [1, 5] was 0.27, the “Fraction No Phenotype” value [1, 5] was 0.00 and the “Fraction Parayzed” value [1, 5] was 0.13. For the same compound, the “Fraction Coiled, Averages of 3 biological repeats” value ([1]; 15 µM) was 0.25, the “Fraction Jerky-Unc, Averages of 3 biological repeats” value ([1]; 15 µM) was 0.52 and the “Fraction No Phenotype, Averages of 3 biological repeats” value ([1]; 15 µM) was 0.23. The “Fraction Parayzed, Averages of 3 biological repeats” value ([1]; 15 µM) was 0.00, the “C1 (loose coil) worm count” value ([1]; 15 µM, single Bio Rep) was 1 and 2 and the “Fraction Jerky-Unc” value ([1]; 15 µM, single Bio Rep) was 0.35 and 0.6111 and 0.5882. The “Fraction Parayzed” value ([1]; 15 µM, single Bio Rep) was 0, the “J (jerky-unc) worm count” value ([1]; 15 µM, single Bio Rep) was 11 and 7 and 10 and the “P (paralyzed) worm count” value ([1]; 15 µM, single Bio Rep) was 0. For the same compound, the “Fraction Coiled, Averages of 3 biological repeats” value ([1]; 30 µM) was 0.54, the “Fraction Jerky-Unc, Averages of 3 biological repeats” value ([1]; 30 µM) was 0.44 and the “Fraction No Phenotype, Averages of 3 biological repeats” value ([1]; 30 µM) was 0.00. The “Fraction Parayzed, Averages of 3 biological repeats” value ([1]; 30 µM) was 0.0185, the “C1 (loose coil) worm count” value ([1]; 30 µM, single Bio Rep) was 4 and 2 and 3 and the “C2 (tight coil) worm count” value ([1]; 30 µM, single Bio Rep) was 5 and 8 and 6. The “Fraction Coiled” value ([1]; 30 µM, single Bio Rep) was 0.50 and 0.63, the “Fraction Jerky-Unc” value ([1]; 30 µM, single Bio Rep) was 0.5 and 0.4444 and 0.375 and the “Fraction No Phenotype” value ([1]; 30 µM, single Bio Rep) was 0.00. The “J (jerky-unc) worm count” value ([1]; 30 µM, single Bio Rep) was 8 and 9 and 6, the “NP (no phene) worm count” value ([1]; 30 µM, single Bio Rep) was 0 and the “Fraction Coiled, Averages of 3 biological repeats” value ([1]; 60 µM) was 0.49. The “Fraction Jerky-Unc, Averages of 3 biological repeats” value ([1]; 60 µM) was 0.28, the “Fraction No Phenotype, Averages of 3 biological repeats” value ([1]; 60 µM) was 0.00 and the “Fraction Parayzed, Averages of 3 biological repeats” value ([1]; 60 µM) was 0.22. The “C2 (tight coil) worm count” value ([1]; 60 µM, single Bio Rep) was 6, the “Fraction Coiled” value ([1]; 60 µM, single Bio Rep) was 0.56 and 0.59 and 0.33 and the “Fraction No Phenotype” value ([1]; 60 µM, single Bio Rep) was 0.00. The “J (jerky-unc) worm count” value ([1]; 60 µM, single Bio Rep) was 6 and 3, the “NP (no phene) worm count” value ([1]; 60 µM, single Bio Rep) was 0 and the “mean % any phene (coiled, jerky-Unc or paralyzed)” value (“mean % any phene” for short) (Pristionchus pacificus; conc 3.75, observed at one hour) was 0%. The “mean % any phene” value (Pristionchus pacificus; conc 15, observed at one hour) was 56.6667%, the “mean % any phene” value (Pristionchus pacificus; conc 60, observed at one hour) was 100% and the EC50 (Pristionchus pacificus; Pristionchus pacificus, 1 h, read-out: P. pacificus motor disruption EC50) was 14.1 ± 2.9 µM. For the same compound, the “rep 1 atypical locomotion” value (Pristionchus pacificus; conc 3.75) was 4, the “rep 1 coiled” value (Pristionchus pacificus; conc 3.75) was 1 and the “rep 1 no phene” value (Pristionchus pacificus; conc 3.75) was 15. For the same compound, the “rep 1 paralyzed” value (Pristionchus pacificus; conc 3.75) was 0, the “rep 1 atypical locomotion” value (Pristionchus pacificus; conc 15) was 13 and the “rep 1 coiled” value (Pristionchus pacificus; conc 15) was 1. For the same compound, the “rep 1 no phene” value (Pristionchus pacificus; conc 15) was 6, the “rep 1 paralyzed” value (Pristionchus pacificus; conc 15) was 0 and the “rep 1 atypical locomotion” value (Pristionchus pacificus; conc 60) was 0. For the same compound, the “rep 1 coiled” value (Pristionchus pacificus; conc 60) was 2, the “rep 1 no phene” value (Pristionchus pacificus; conc 60) was 0 and the “rep 1 paralyzed” value (Pristionchus pacificus; conc 60) was 18. The “% para (percentage of animals able to adopt a clear sinusoidal wave pattern upon touch on the nose)” value (C. elegans; Nemacol-1 3.75 uM + trichlorfon 0 uM) was 100%, the “% para (percentage of animals able to adopt a clear sinusoidal wave pattern upon touch on the nose)” value (C. elegans; Nemacol-1 3.75 uM + trichlorfon 25 uM) was 96.4286% and 92.8571% and 100% and the “% para (percentage of animals able to adopt a clear sinusoidal wave pattern upon touch on the nose)” value (C. elegans; Nemacol-1 3.75 uM + trichlorfon 50 uM) was 96.4286% and 85.7143% and 75%. For the same compound, the “% para (percentage of animals able to adopt a clear sinusoidal wave pattern upon touch on the nose)” value (C. elegans; Nemacol-1 3.75 uM + trichlorfon 100 uM) was 28.5714% and 32.1429% and 39.2857%, the “% para (percentage of animals able to adopt a clear sinusoidal wave pattern upon touch on the nose)” value (C. elegans; Nemacol-1 3.75 uM + trichlorfon 200 uM) was 10.7143% and 7.143% and the “% para (percentage of animals able to adopt a clear sinusoidal wave pattern upon touch on the nose)” value (C. elegans; Nemacol-1 3.75 uM + trichlorfon 400 uM) was 3.571% and 0%. The “% para (percentage of animals able to adopt a clear sinusoidal wave pattern upon touch on the nose)” value (C. elegans; Nemacol-1 3.75 uM + trichlorfon 800 uM) was 0%, the “% para (percentage of animals able to adopt a clear sinusoidal wave pattern upon touch on the nose)” value (C. elegans; Nemacol-1 15 uM + trichlorfon 0 uM) was 96.4286% and 100% and the “% para (percentage of animals able to adopt a clear sinusoidal wave pattern upon touch on the nose)” value (C. elegans; Nemacol-1 15 uM + trichlorfon 25 uM) was 100%. The “% para (percentage of animals able to adopt a clear sinusoidal wave pattern upon touch on the nose)” value (C. elegans; Nemacol-1 15 uM + trichlorfon 50 uM) was 92.8571% and 46.4286% and 64.2857%, the “% para (percentage of animals able to adopt a clear sinusoidal wave pattern upon touch on the nose)” value (C. elegans; Nemacol-1 15 uM + trichlorfon 100 uM) was 82.1429% and 53.5714% and 71.4286% and the “% para (percentage of animals able to adopt a clear sinusoidal wave pattern upon touch on the nose)” value (C. elegans; Nemacol-1 15 uM + trichlorfon 400 uM) was 14.2857% and 7.143%. For the same compound, the “% para (percentage of animals able to adopt a clear sinusoidal wave pattern upon touch on the nose)” value (C. elegans; Nemacol-1 15 uM + trichlorfon 800 uM) was 0% and 3.571%, the “% para (percentage of animals able to adopt a clear sinusoidal wave pattern upon touch on the nose)” value (C. elegans; Nemacol-1 30 uM + trichlorfon 0 uM) was 100% and the “% para (percentage of animals able to adopt a clear sinusoidal wave pattern upon touch on the nose)” value (C. elegans; Nemacol-1 30 uM + trichlorfon 25 uM) was 100%. The “% para (percentage of animals able to adopt a clear sinusoidal wave pattern upon touch on the nose)” value (C. elegans; Nemacol-1 30 uM + trichlorfon 50 uM) was 85.7143% and 89.2857% and 92.8571%, the “% para (percentage of animals able to adopt a clear sinusoidal wave pattern upon touch on the nose)” value (C. elegans; Nemacol-1 30 uM + trichlorfon 100 uM) was 78.5714% and 82.1429% and the “% para (percentage of animals able to adopt a clear sinusoidal wave pattern upon touch on the nose)” value (C. elegans; Nemacol-1 30 uM + trichlorfon 200 uM) was 53.5714% and 32.1429% and 39.2857%. The “% para (percentage of animals able to adopt a clear sinusoidal wave pattern upon touch on the nose)” value (C. elegans; Nemacol-1 30 uM + trichlorfon 800 uM) was 3.571%, the “% para (percentage of animals able to adopt a clear sinusoidal wave pattern upon touch on the nose)” value (C. elegans; Nemacol-1 60 uM + trichlorfon 0 uM) was 50% and 82.1429% and 71.4286% and the “% para (percentage of animals able to adopt a clear sinusoidal wave pattern upon touch on the nose)” value (C. elegans; Nemacol-1 60 uM + trichlorfon 25 uM) was 85.7143% and 75% and 78.5714%. The “% para (percentage of animals able to adopt a clear sinusoidal wave pattern upon touch on the nose)” value (C. elegans; Nemacol-1 60 uM + trichlorfon 50 uM) was 78.5714% and 57.1429% and 67.8571%, the “% para (percentage of animals able to adopt a clear sinusoidal wave pattern upon touch on the nose)” value (C. elegans; Nemacol-1 60 uM + trichlorfon 100 uM) was 53.5714% and 67.8571% and the “% para (percentage of animals able to adopt a clear sinusoidal wave pattern upon touch on the nose)” value (C. elegans; Nemacol-1 60 uM + trichlorfon 200 uM) was 35.7143% and 57.1429% and 50%. For the same compound, the “% para (percentage of animals able to adopt a clear sinusoidal wave pattern upon touch on the nose)” value (C. elegans; Nemacol-1 60 uM + trichlorfon 800 uM) was 3.571% and 7.143%, the “% para (percentage of animals able to adopt a clear sinusoidal wave pattern upon touch on the nose)” value (C. elegans; Nemacol-1 […] + trichlorfon 25 uM) was 100% and the “% para (percentage of animals able to adopt a clear sinusoidal wave pattern upon touch on the nose)” value (C. elegans; Nemacol-1 […] + trichlorfon 800 uM) was 0%. The “% effect (motility), DIROIM MF” value ([2]; 0.016 µM) was 0%, the “% effect (motility), DIROIM MF” value ([2]; 0.08 µM) was 0% and the “% effect (motility), DIROIM MF” value ([2]; 0.4 µM) was 0%. For the same compound, the “% effect (motility), DIROIM MF” value ([2]; 2 µM) was 20%, the “% effect (motility), DIROIM MF” value ([2]; 10 µM) was 100% and the “% effect (motility), DIROIM MF” value ([2]; 50 µM) was 100%. The EC50 ([2]; Dirofilaria immitis, 72 h, read-out: Dirofilaria immitis filariae EC50) was 2.2 µM, the “activity against D. immitis (EC50)” value [3] was “low micromolar activity” and the “% effect (motility), DIROIM L4” value ([3]; 0.016 µM) was 0%. The “% effect (motility), DIROIM L4” value ([3]; 0.08 µM) was 0%, the “% effect (motility), DIROIM L4” value ([3]; 0.4 µM) was 0% and the “% effect (motility), DIROIM L4” value ([3]; 2 µM) was 5%. For the same compound, the “% effect (motility), DIROIM L4” value ([3]; 10 µM) was 100% and the “% effect (motility), DIROIM L4” value ([3]; 50 µM) was 100%.
